Assay results from patent publication US9006221B2, “Method of modulating ship activity” (H. Lee Moffitt Cancer Center and Reserach Institute, Inc., priority 2008, dated 2015).

Experiments:
[1] = biological target: T1, SHIP2 (Homo sapiens, UniProt O15357); assay: Malachite Green phosphate release assay, SHIP2; format: biochemical; details: at 1 mM
T1 sequence (O15357 1-1258): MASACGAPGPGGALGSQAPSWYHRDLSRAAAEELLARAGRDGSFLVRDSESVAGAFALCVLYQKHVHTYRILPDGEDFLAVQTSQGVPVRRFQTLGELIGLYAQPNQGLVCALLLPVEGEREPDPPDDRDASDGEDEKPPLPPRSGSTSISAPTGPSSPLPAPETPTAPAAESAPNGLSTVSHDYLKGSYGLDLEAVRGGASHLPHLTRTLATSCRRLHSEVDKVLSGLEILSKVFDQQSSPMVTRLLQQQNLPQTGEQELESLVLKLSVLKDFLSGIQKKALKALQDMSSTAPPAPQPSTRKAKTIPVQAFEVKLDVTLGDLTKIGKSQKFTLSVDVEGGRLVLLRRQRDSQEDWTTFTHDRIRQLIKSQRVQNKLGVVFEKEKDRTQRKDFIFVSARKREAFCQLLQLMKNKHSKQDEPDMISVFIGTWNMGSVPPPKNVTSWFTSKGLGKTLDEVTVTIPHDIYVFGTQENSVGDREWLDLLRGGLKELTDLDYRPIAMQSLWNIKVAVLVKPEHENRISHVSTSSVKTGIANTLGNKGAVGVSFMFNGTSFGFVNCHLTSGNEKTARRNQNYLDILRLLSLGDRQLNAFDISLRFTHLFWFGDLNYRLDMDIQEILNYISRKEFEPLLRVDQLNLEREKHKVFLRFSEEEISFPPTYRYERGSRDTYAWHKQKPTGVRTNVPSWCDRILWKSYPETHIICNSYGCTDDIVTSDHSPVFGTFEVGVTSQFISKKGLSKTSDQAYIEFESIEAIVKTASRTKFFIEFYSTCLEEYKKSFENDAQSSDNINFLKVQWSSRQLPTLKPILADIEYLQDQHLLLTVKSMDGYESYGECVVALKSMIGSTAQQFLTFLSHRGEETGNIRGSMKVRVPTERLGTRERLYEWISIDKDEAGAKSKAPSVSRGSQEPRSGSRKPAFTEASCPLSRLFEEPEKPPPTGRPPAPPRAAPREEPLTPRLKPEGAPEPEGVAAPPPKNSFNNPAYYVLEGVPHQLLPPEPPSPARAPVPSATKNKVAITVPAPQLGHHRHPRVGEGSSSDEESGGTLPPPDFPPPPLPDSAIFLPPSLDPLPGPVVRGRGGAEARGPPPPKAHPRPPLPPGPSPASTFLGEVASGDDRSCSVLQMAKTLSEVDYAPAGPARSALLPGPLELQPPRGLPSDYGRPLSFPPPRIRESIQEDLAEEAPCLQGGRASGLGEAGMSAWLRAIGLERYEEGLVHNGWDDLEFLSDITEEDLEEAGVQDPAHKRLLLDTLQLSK

[2] = test system: KG1 cells; assay: Apoptosis of KG1 cells (Western blot, Annexin V/PI FACS); format: cell-based, human
Experimental: (A) SHIP1 expression in KG1 and MG63 cells was determined by Western blotting (top). Membranes were reprobed with antibodies against b-actin to confirm equal loading (lower panel). One representative blot of 2 individual experiments is shown. (B) KG1 and MG63 cells were plated in duplicate in 96 well plates, and treated for 36 hours with increasing concentrations of the 3α-aminocholestane. Cell viability was assessed by MTT assay. Results represent the mean of three individual experiments. (C) KG1 cells were treated with increasing concentrations of 3α-aminocholestane for 36 hours and hallmarks of apoptosis were identified in cell lysates by Western Blot analysis. Membranes were probed with antibodies against PARP and cleaved PARP (cPARP, upper panel) and cleaved Caspase 3 (cCaspase 3, middle panel). Equal protein loading was confirmed by reprobing the blots with anti-b-actin antibodies (lower panel). A representative example of 2 independent experiments is shown. (D) KG1 cells were treated with increasing concentrations of 3α-aminocholestane, and the percentage of AnnexinV and PI positive cells was determined by FACS analysis. A representative example of 2 individual experiments is shown.
It was a concern that SHIP1 inhibitors might potentially enhance the survival and growth of blood cell cancers. Conversely, as discussed above, SHIP1 inhibition could also […] Akt activation and therefore might also antagonize the survival of malignant blood cells. The two possibilities were tested by treating the AML cell line (KG-1) that expresses SHIP1 (FIG. 17a) with 3α-aminocholestane. […]
Preparation of cell lysates and Western blotting: Cells were counted, centrifuged and resuspended in Laemmli sample buffer. […]
Annexin V staining Annexin V/Propidium Iodide (PI) staining was performed using the Annexin V-FITC apoptosis detection kit from BD Pharmingen (Sharon, Mass.) per the manufacturer's instructions. […] Fluorescence was determined by flow cytometry (LSR II, Becton Dickinson Medical Systems, Sharon, Mass.).

SMILES: CC(C)CCC[C@@H](C)[C@H]1CC[C@H]2[C@@H]3CC[C@H]4C[C@H](N)CC[C@]4(C)[C@H]3CC[C@]12C [NSC23922, (3R,5S,8R,9S,10S,13R,14S,17R)-10,13-dimethyl-17-[(2R)-6-methylheptan-2-yl]-2,3,4,5,6,7,8,9,11,12,14,15,16,17-tetradecahydro-1H-cyclopenta[a]phenanthren-3-amine]
- inhibition of SHIP2 activity [1]: fails to inhibit
- frequency of AnnexinV+ cells ([2]; KG1, 36 hours, FACS): increased frequency
- cleavage of PARP and Caspase 3 ([2]; KG1, 36 hours, Western blot): increased cleavage
- activation of Akt/PKB ([2]; KG1, Western blot): decreased activation
